Experimental data reported in PubChem BioAssay AID1963848 (Molecular Pharmacology Branch, DTP, NCI, 2024).

System: 379773-124-R-J2-PDC spheroid viability
Experiment: Anticancer human tumor 379773-124-R-J2-PDC patient-derived endometrial carcinoma cell line growth inhibition [POLQ]
Details: spheroids with HUVEC and MSC; for IC50: curve of first compound; for viability, T/C: stronger effect = lower value
Procedure, shortened: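 Growth inhibition in 3D: complex spheroids (tumor PDC, HUVEC, MSC) treated with POLQ inhibitor combinations; where Cmax unknown, highest tested concentration 10 microM, except SN-38 at 1 microM.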

[1] = second compound 0.0316 µM, first compound 0.0316 µM
[2] = second compound 0.0316 µM, first compound 0.1 µM
[3] = second compound 0.0316 µM, first compound 0.316 µM
[4] = second compound 0.0316 µM, first compound 1 µM
[5] = second compound 0.0316 µM, first compound 3.16 µM
[6] = second compound 0.0316 µM, first compound 10 µM
[7] = second compound 0.1 µM, first compound 0.0316 µM
[8] = second compound 0.1 µM, first compound 0.1 µM
[9] = second compound 0.1 µM, first compound 0.316 µM
[10] = second compound 0.1 µM, first compound 1 µM
[11] = second compound 0.1 µM, first compound 3.16 µM
[12] = second compound 0.1 µM, first compound 10 µM
[13] = second compound 0.316 µM, first compound 0.0316 µM
[14] = second compound 0.316 µM, first compound 0.1 µM
[15] = second compound 0.316 µM, first compound 0.316 µM
[16] = second compound 0.316 µM, first compound 1 µM
[17] = second compound 0.316 µM, first compound 3.16 µM
[18] = second compound 0.316 µM, first compound 10 µM
[19] = second compound 1 µM, first compound 0.0316 µM
[20] = second compound 1 µM, first compound 0.1 µM
[21] = second compound 1 µM, first compound 0.316 µM
[22] = second compound 1 µM, first compound 1 µM
[23] = second compound 1 µM, first compound 3.16 µM
[24] = second compound 1 µM, first compound 10 µM
[25] = second compound 3.16 µM, first compound 0.0316 µM
[26] = second compound 3.16 µM, first compound 0.1 µM
[27] = second compound 3.16 µM, first compound 0.316 µM
[28] = second compound 3.16 µM, first compound 1 µM
[29] = second compound 3.16 µM, first compound 3.16 µM
[30] = second compound 3.16 µM, first compound 10 µM
[31] = second compound 10 µM, first compound 0.0316 µM
[32] = second compound 10 µM, first compound 0.1 µM
[33] = second compound 10 µM, first compound 0.316 µM
[34] = second compound 10 µM, first compound 1 µM
[35] = second compound 10 µM, first compound 3.16 µM
[36] = second compound 10 µM, first compound 10 µM
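Note: spheroids exposed to drugs for seven days before readout.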
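Throughout, for viability, T/C: percent viability relative to DMSO vehicle control taken as 100%.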

Nc1ccn(C2OC(CO)C(O)C2(F)F)c(=O)n1 (stereo not given) + COC1C(OC(N)=O)C(O)C(Oc2ccc3c(O)c(NC(=O)c4ccc(O)c(CC=C(C)C)c4)c(=O)oc3c2C)OC1(C)C
IC50 (second compound 0.0316 µM): < 31.6 nM
IC50 (second compound 0.1 µM): < 31.6 nM
IC50 (second compound 0.316 µM): < 31.6 nM
IC50 (second compound 1 µM): < 31.6 nM
IC50 (second compound 3.16 µM): < 31.6 nM
IC50 (second compound 10 µM): < 31.6 nM
viability, T/C [1]: 14.1%
viability, T/C [2]: 7.21%
viability, T/C [3]: 8.07%
viability, T/C [4]: 10.4%
viability, T/C [5]: 7.9%
viability, T/C [6]: 5.28%
viability, T/C [7]: 13.9%
viability, T/C [8]: 7.13%
viability, T/C [9]: 9.39%
viability, T/C [10]: 8.07%
viability, T/C [11]: 8.46%
viability, T/C [12]: 7.04%
viability, T/C [13]: 14.2%
viability, T/C [14]: 9.44%
viability, T/C [15]: 8.7%
viability, T/C [16]: 9.16%
viability, T/C [17]: 11.3%
viability, T/C [18]: 9.38%
viability, T/C [19]: 19.4%
viability, T/C [20]: 7.26%
viability, T/C [21]: 9.54%
viability, T/C [22]: 8.14%
viability, T/C [23]: 9.07%
viability, T/C [24]: 7.06%
viability, T/C [25]: 16.1%
viability, T/C [26]: 7.44%
viability, T/C [27]: 8.41%
viability, T/C [28]: 9.67%
viability, T/C [29]: 7.02%
viability, T/C [30]: 6.42%
viability, T/C [31]: 17.5%
viability, T/C [32]: 5.7%
viability, T/C [33]: 9.27%
viability, T/C [34]: 8.67%
viability, T/C [35]: 8.15%
viability, T/C [36]: 8.46%

C#Cc1c(F)ccc2cc(O)cc(-c3ncc4c(N5CC6CCC(C5)N6)nc(OCC56CCCN5CC(F)C6)nc4c3F)c12 (stereo not given) + Nc1ccc(C#CCN(C(=O)Cc2ncc(C(F)(F)F)cc2C(F)(F)F)c2ccc(F)cc2)nn1
IC50 (second compound 0.0316 µM): > 10000 nM
IC50 (second compound 0.1 µM): > 10000 nM
IC50 (second compound 0.316 µM): > 10000 nM
IC50 (second compound 1 µM): > 10000 nM
IC50 (second compound 3.16 µM): > 10000 nM
IC50 (second compound 10 µM): > 10000 nM
viability, T/C [1]: 92.3%
viability, T/C [2]: 91.9%
viability, T/C [3]: 95.5%
viability, T/C [4]: 89.1%
viability, T/C [5]: 95.8%
viability, T/C [6]: 101%
viability, T/C [7]: 92.7%
viability, T/C [8]: 110%
viability, T/C [9]: 88.6%
viability, T/C [10]: 98%
viability, T/C [11]: 103%
viability, T/C [12]: 107%
viability, T/C [13]: 91.3%
viability, T/C [14]: 89.3%
viability, T/C [15]: 92.1%
viability, T/C [16]: 94.3%
viability, T/C [17]: 104%
viability, T/C [18]: 111%
viability, T/C [19]: 84.5%
viability, T/C [20]: 97.6%
viability, T/C [21]: 99.9%
viability, T/C [22]: 86.1%
viability, T/C [23]: 106%
viability, T/C [24]: 103%
viability, T/C [25]: 99.3%
viability, T/C [26]: 88.7%
viability, T/C [27]: 105%
viability, T/C [28]: 103%
viability, T/C [29]: 103%
viability, T/C [30]: 104%
viability, T/C [31]: 88.9%
viability, T/C [32]: 88.6%
viability, T/C [33]: 98.5%
viability, T/C [34]: 85.6%
viability, T/C [35]: 91.3%
viability, T/C [36]: 102%

CC1COCCN1c1cc(C2(S(C)(=N)=O)CC2)nc(-c2ccnc3[nH]ccc23)n1 (stereo not given) + COC1C(OC(N)=O)C(O)C(Oc2ccc3c(O)c(NC(=O)c4ccc(O)c(CC=C(C)C)c4)c(=O)oc3c2C)OC1(C)C
IC50 (second compound 0.0316 µM): 1910 nM
IC50 (second compound 0.1 µM): 1850 nM
IC50 (second compound 0.316 µM): 1780 nM
IC50 (second compound 1 µM): 1930 nM
IC50 (second compound 3.16 µM): 1790 nM
IC50 (second compound 10 µM): 1670 nM
viability, T/C [1]: 100%
viability, T/C [2]: 86.1%
viability, T/C [3]: 78.5%
viability, T/C [4]: 78.2%
viability, T/C [5]: 28.9%
viability, T/C [6]: 5.71%
viability, T/C [7]: 92%
viability, T/C [8]: 85.2%
viability, T/C [9]: 91.3%
viability, T/C [10]: 79.9%
viability, T/C [11]: 24%
viability, T/C [12]: 5.69%
viability, T/C [13]: 91.1%
viability, T/C [14]: 82.1%
viability, T/C [15]: 77.1%
viability, T/C [16]: 75.7%
viability, T/C [17]: 24.9%
viability, T/C [18]: 7.92%
viability, T/C [19]: 87%
viability, T/C [20]: 82.1%
viability, T/C [21]: 87%
viability, T/C [22]: 79%
viability, T/C [23]: 28%
viability, T/C [24]: 7.44%
viability, T/C [25]: 78%
viability, T/C [26]: 88.2%
viability, T/C [27]: 81.5%
viability, T/C [28]: 67.5%
viability, T/C [29]: 32.6%
viability, T/C [30]: 8.77%
viability, T/C [31]: 85.6%
viability, T/C [32]: 74.4%
viability, T/C [33]: 79.8%
viability, T/C [34]: 61.7%
viability, T/C [35]: 34.5%
viability, T/C [36]: 5.53%

O=c1[nH]cc(F)c(=O)[nH]1 + COC1C(OC(N)=O)C(O)C(Oc2ccc3c(O)c(NC(=O)c4ccc(O)c(CC=C(C)C)c4)c(=O)oc3c2C)OC1(C)C
IC50 (second compound 0.0316 µM): > 10000 nM
IC50 (second compound 0.1 µM): > 10000 nM
IC50 (second compound 0.316 µM): > 10000 nM
IC50 (second compound 1 µM): > 10000 nM
IC50 (second compound 3.16 µM): > 10000 nM
IC50 (second compound 10 µM): > 10000 nM
viability, T/C [1]: 85.1%
viability, T/C [2]: 83.2%
viability, T/C [3]: 85.4%
viability, T/C [4]: 80.3%
viability, T/C [5]: 69.1%
viability, T/C [6]: 51.8%
viability, T/C [7]: 90.7%
viability, T/C [8]: 88.8%
viability, T/C [9]: 81.8%
viability, T/C [10]: 86.2%
viability, T/C [11]: 68.6%
viability, T/C [12]: 61%
viability, T/C [13]: 92.7%
viability, T/C [14]: 90.4%
viability, T/C [15]: 80.9%
viability, T/C [16]: 78%
viability, T/C [17]: 75.8%
viability, T/C [18]: 56.6%
viability, T/C [19]: 82.6%
viability, T/C [20]: 77.2%
viability, T/C [21]: 88.4%
viability, T/C [22]: 74.6%
viability, T/C [23]: 71.1%
viability, T/C [24]: 60.3%
viability, T/C [25]: 78.2%
viability, T/C [26]: 82.6%
viability, T/C [27]: 90.4%
viability, T/C [28]: 70.8%
viability, T/C [29]: 76.6%
viability, T/C [30]: 57.5%
viability, T/C [31]: 75.6%
viability, T/C [32]: 78.5%
viability, T/C [33]: 76.1%
viability, T/C [34]: 71%
viability, T/C [35]: 70.6%
viability, T/C [36]: 55.3%

CC1COCCN1c1cc(C2(O)CC3CCC(C2)O3)c2cnn(-c3ccn[nH]3)c2n1 (stereo not given) + Nc1ccc(C#CCN(C(=O)Cc2ncc(C(F)(F)F)cc2C(F)(F)F)c2ccc(F)cc2)nn1
IC50 (second compound 0.0316 µM): 128 nM
IC50 (second compound 0.1 µM): 104 nM
IC50 (second compound 0.316 µM): 121 nM
IC50 (second compound 1 µM): 107 nM
IC50 (second compound 3.16 µM): 126 nM
IC50 (second compound 10 µM): 114 nM
viability, T/C [1]: 110%
viability, T/C [2]: 59.9%
viability, T/C [3]: 13.5%
viability, T/C [4]: 12.8%
viability, T/C [5]: 11.2%
viability, T/C [6]: 4.19%
viability, T/C [7]: 92%
viability, T/C [8]: 51.4%
viability, T/C [9]: 16%
viability, T/C [10]: 14%
viability, T/C [11]: 10.2%
viability, T/C [12]: 3.29%
viability, T/C [13]: 83.2%
viability, T/C [14]: 56.6%
viability, T/C [15]: 16.1%
viability, T/C [16]: 11.8%
viability, T/C [17]: 10.4%
viability, T/C [18]: 4.27%
viability, T/C [19]: 86.9%
viability, T/C [20]: 52.5%
viability, T/C [21]: 16.4%
viability, T/C [22]: 13.6%
viability, T/C [23]: 8.92%
viability, T/C [24]: 3.67%
viability, T/C [25]: 83%
viability, T/C [26]: 59.3%
viability, T/C [27]: 12.5%
viability, T/C [28]: 11.8%
viability, T/C [29]: 9.65%
viability, T/C [30]: 3.56%
viability, T/C [31]: 82.8%
viability, T/C [32]: 54.5%
viability, T/C [33]: 18.5%
viability, T/C [34]: 14.6%
viability, T/C [35]: 9.99%
viability, T/C [36]: 3.04%
